The values that follow are results of earlier work, collected in patent US11485730B2, “Compositions and methods for the treatment of fungal infections” (Cellix Bio Private Limited, priority 2016, dated 2022).

Where two headings read alike, the source gives them in different places.

By MIC is commonly meant the lowest concentration that inhibits growth of the organism.

Data set [1] has as its system oral streptococci and periodontopathogens.
For data set [2] the following is noted: among the long-chain fatty acids.
The test system of data set [3] is various oral pathogenic microorganisms.

`CCCCC/C=C\C/C=C\C/C=C\CCCCC(=O)O` [GLA, gamma linoleic acid]: in data set [1] (n-6 fatty acids), the bactericidal concentration was 25 µg/mL. Also, the antimicrobial activity entry in data set [2] is reported as “greatest antimicrobial activity”. Besides, in data set [3] (in vitro studies, various oral pathogenic microorganisms), the anti-microbial activity result is “significant anti-microbial activity”. Further, the antimicrobial activities result in data set [3] (various oral microorganisms, including S. mutans, A. actinomycetemcomitans, C. albicans, P. gingivalis, F. nucleatum, S. gordonii) is given as “antimicrobial activities”.
On to `CCCCC/C=C\C/C=C\C/C=C\C/C=C\CCCC(=O)O` [arachidonic acid], for which the antimicrobial activity result in data set [2] was “greatest antimicrobial activity”.
Regarding `CCCCCCCCCCCCCCCC(=O)O` [palmitic acid], in data set [2], the antimicrobial activity result is on record as “greatest antimicrobial activity”.
Take `CCCCCC/C=C\CCCCCCCC(=O)O` [palmitoleic acid]: in data set [2], the antimicrobial activity result was “greatest antimicrobial activity”.
On to `CCCCC/C=C\C/C=C\CCCCCCCC(=O)O` [linoleic acid], for which the bactericidal concentration in data set [1] is 25 µg/mL. In addition, the “activity against C. albicans” value with C. albicans is listed as below 40%. Moreover, in data set [2], the antimicrobial activity result is recorded as “greatest antimicrobial activity”. In addition, the MIC is 450 µM in the data set with Candida Species and 0.13 µg/mL with Candida Species (printed as corresponding to 0.45 μmoles/ml).
